One data set concerns ventral prostate. Description: Antiandrogenic test: ventral prostate weight in testosterone propionate-treated rats. The data set is classed as in vivo, rat. The following applies: sterilized male rats, 5 per group; s.c. daily for 7 days; compound 10 mg/kg + testosterone propionate 0.5 mg/kg, or testosterone propionate 0.5 mg/kg alone. How it is done:
(§1) The antiandrogenic activity of the compositions of this invention can be determined in the following test:
(§2) 10 mg. per kg of the composition together with 0.5 mg. per kg. of testosterone propionate are administered s.c. daily for 7 days to each of 5 male, sterilized rats. Two control groups of 5 rats each were also used. One control group received no treatment. The second control group received only 0.5 mg. per kg. of testosterone propionate.
(§3) Testosterone propionate causes an increase in weight in the ventral prostrate and the seminal vesicle. Thus, a decrease in weight in the ventral prostrate and the seminal vesicle when a composition containing a compound of formula I is given to the rats in combination with testosterone propionate is a measure of the antiandrogenic activity of that compound.

In a further data set the test system is seminal vesicle. Description: Antiandrogenic test: seminal vesicle weight in testosterone propionate-treated rats. The data set is classed as in vivo, rat. Particulars: sterilized male rats, 5 per group; s.c. daily for 7 days; compound 10 mg/kg + testosterone propionate 0.5 mg/kg, or testosterone propionate 0.5 mg/kg alone. How it is done: as §1, §2, §3
For a further data set, the system named is Schistosoma mansoni. In words: Schistosomicidal activity in infected mice (VD50). The data set is classed as in vivo. The following applies: po, 1008 h, p.o., administered 5 times (5 successive days), from 42 days after infection, Probit method, read-out: VD50 (vermicidal dose 50%: the dose which kills 50% of the worm pairs). Here is the method: Mice were infected subcutaneously with 60 cercariae of Schistosoma mansoni. 42 days after the infection, the animals were treated perorally on 5 successive days with the compositions to be tested 5-10 mice were used for each composition and dosage rate (mg/kg). 10 untreated mice serve as the control. The mice were autopsied either 6 days or 2-3 weeks after conclusion of the treatment. Worm pairs in mesenteric veins, the portal vein and the liver were removed and counted. The percent distribution of the worm pairs in mesenteric veins, the portal vein and the liver was calculated and the condition of the worms (living and dead) recorded. The schistosomicidal activity of the compositions containing a compound of formula I is shown both by an increased proportion of worms in the vessels of the liver and in the appearance of dead worms.
For the evaluation, the percentage proportions of living and dead worm pairs in the vessels of the liver both in infected, treated animals and in infected but untreated control animals were compared. The determination of the VD50 (vermicidal dose 50%: the dose which kills 50% of the worm pairs) is carried out by the Probit method.

Data set [1] can be described thus: LD50 (acute toxicity), p.o. Particulars: in vivo, po, species not given.

Structures are written as SMILES. “And” between values parts separate entries of the source, which are not always exact repeats. Equal values may be shown once.

`CC1(C)NC(=O)N(c2ccc(Cl)c(Cl)c2)C1=O` [3-(3,4-Dichloro-phenyl)-5,5-dimethyl-hydantoin]: the Ventral prostate weight in the data set with ventral prostate was 36 ± 4 mg. The Seminal vesicle weight with seminal vesicle was 29 ± 2 mg. Moreover, the ED50 in the data set on Schistosoma mansoni came to 58 mg/kg. Besides, in data set [1], the LD50 fell in the range of 2500 to 5000 mg/kg.

For `CC1(C)NC(=O)N(c2cccc(C(F)(F)F)c2)C1=O` [3-(3-Trifluoromethyl-phenyl)-5,5-dimethyl-hydantoin], in data set [1], the LD50 was in the range of 625 to 1250 mg/kg.

As to `CC1(C)NC(=O)N(c2ccc(Cl)cc2)C1=O` [3-(4-Chloro-phenyl)-5,5-dimethyl-hydantoin], the ED50 with Schistosoma mansoni was 77 mg/kg. Also, in data set [1], the median lethal dose (LD50) fell in the range of 1250 to 2500 mg/kg.

Turning to `CC1(C)NC(=O)N(c2ccc(F)cc2)C1=O` [3-(4-Fluoro-phenyl)-5,5-dimethyl-hydantoin], the ED50 in the data set with Schistosoma mansoni came out at 69 mg/kg. Further, in data set [1], the LD50 was 600 to 1200 mg/kg.

Take `COC(=O)C(C)(C)NC(=O)Nc1ccc(Cl)c(C(F)(F)F)c1` [N-[(3-Trifluoromethyl-4-chloro-phenyl)-carbamoyl]-2-methylalanine methyl ester]: the Ventral prostate weight with ventral prostate worked out at 61 ± 6 mg. In addition, the Seminal vesicle weight with seminal vesicle was 47 ± 11 mg. The ED50 in the data set with Schistosoma mansoni turned out to be 74 mg/kg. Besides, the LD50 in data set [1] is over 5000 mg/kg.

Take `CCC(=O)O[C@H]1CC[C@H]2[C@@H]3CCC4=CC(=O)CC[C@]4(C)[C@H]3CC[C@]12C` [Testosterone propionate, reference compound]: in the data set with ventral prostate, the Ventral prostate weight was 140 ± 11 mg and 121 ± 13 mg. In addition, in the data set on seminal vesicle, the Seminal vesicle weight is 88 ± 5 mg and 100 ± 9 mg.

What is called LD50 is the dose expected to kill half of the subjects tested. Low readings indicate greater toxicity, high ones lower toxicity.

For the origin of these results see patent publication US4234736A, “Antiandrogenic and schistosomicidal imidazolidine derivatives” (Hoffmann-La Roche Inc., priority 1977, dated 1980).
